Laboratory results as given in the NIST ThermoML archive (doi:10.1021/je800579j).

Test: refractive index (Na D-line) (dimensionless); xn = mol fraction of the nth substance listed
Conditions: Liquid, Standard Abbe refractometry

C1COCCO1 [1,4-dioxane] + Cc1ccccc1
refractive index
Conditions	288.15 K	293.15 K	298.15 K	303.15 K	308.15 K	313.15 K	318.15 K
x1 = 0.0688	1.4955	1.4927	1.4899	1.487	1.4841	1.4812	1.4783
x1 = 0.1373	1.4914	1.4886	1.4858	1.4829	1.48	1.4771	1.4742
x1 = 0.2112	1.4869	1.4842	1.4814	1.4786	1.4757	1.4729	1.47
x1 = 0.2858	1.4822	1.4795	1.4768	1.474	1.4712	1.4684	1.4655
x1 = 0.3552	1.4775	1.4749	1.4722	1.4695	1.4668	1.464	1.4613
x1 = 0.4361	1.4719	1.4693	1.4667	1.464	1.4614	1.4587	1.456
x1 = 0.5064	1.4668	1.4643	1.4617	1.4591	1.4565	1.4539	1.4512
x1 = 0.5819	1.4611	1.4586	1.4561	1.4536	1.451	1.4484	1.4458
x1 = 0.6506	1.4557	1.4533	1.4508	1.4483	1.4458	1.4433	1.4408
x1 = 0.7212	1.4499	1.4475	1.4451	1.4427	1.4403	1.4378	1.4353
x1 = 0.7903	1.444	1.4417	1.4393	1.437	1.4346	1.4322	1.4298
x1 = 0.864	1.4374	1.4352	1.4329	1.4306	1.4283	1.426	1.4236
x1 = 0.9336	1.431	1.4288	1.4266	1.4244	1.4222	1.4199	1.4176
x1 = 1	1.4245	1.4224	1.4203	1.4182	1.4161	1.4139	1.4117

C1COCCO1 [1,4-dioxane] + c1ccccc1
refractive index
Conditions	288.15 K	293.15 K	298.15 K	303.15 K	308.15 K	313.15 K	318.15 K
x1 = 0.0713	1.4982	1.4951	1.4921	1.489	1.4859	1.4829	1.4798
x1 = 0.1403	1.4924	1.4894	1.4864	1.4834	1.4803	1.4773	1.4743
x1 = 0.2123	1.4864	1.4835	1.4805	1.4775	1.4746	1.4716	1.4686
x1 = 0.2809	1.4807	1.4778	1.4749	1.472	1.4691	1.4662	1.4633
x1 = 0.3528	1.4748	1.472	1.4692	1.4663	1.4635	1.4607	1.4578
x1 = 0.4195	1.4694	1.4666	1.4639	1.4611	1.4583	1.4556	1.4528
x1 = 0.5037	1.4626	1.4599	1.4573	1.4546	1.4519	1.4492	1.4465
x1 = 0.58	1.4565	1.4539	1.4513	1.4487	1.4461	1.4435	1.4409
x1 = 0.6504	1.451	1.4484	1.4459	1.4434	1.4409	1.4383	1.4357
x1 = 0.7197	1.4456	1.4432	1.4407	1.4382	1.4358	1.4332	1.4307
x1 = 0.7822	1.4408	1.4384	1.436	1.4336	1.4312	1.4287	1.4263
x1 = 0.8561	1.4352	1.4329	1.4306	1.4283	1.426	1.4236	1.4212
x1 = 0.9287	1.4298	1.4276	1.4254	1.4232	1.421	1.4187	1.4164
x1 = 1	1.4245	1.4224	1.4203	1.4182	1.4161	1.4139	1.4117
